Measured values from US8415351B2 (priority 2007, dated 2013).
pEC50: −log10 of the molar value.

Legend:
[1] = tested on: genotype 1a-H77 subgenomic replicon cell line; assay: microbe, parasite or virus in culture; type: cell-based, HCV; conditions: Hepatitis C virus, read-out: EC50 1a
[2] = tested on: genotype 1b-Con1 subgenomic replicon cell line; assay: microbe, parasite or virus in culture; type: cell-based, HCV; conditions: Hepatitis C virus, read-out: EC50 1b

| Structure (SMILES) | pEC50 [1] | pEC50 [2] |
| --- | --- | --- |
| COCC(C)(C)c1cc(-n2ccc(=O)[nH]c2=O)cc(-c2ccc3cc(NS(C)(=O)=O)ccc3c2)c1OC [IB-L0-2.66, N-(6-(5-(2,4-dioxo-3,4-dihydropyrimidin-1(2H)-yl)-2-methoxy-3-(1-methoxy-2-methylpropan-2-yl)phenyl)naphthalen-2-yl)methanesulfonamide] | 6.00 to 7.00 | 7.00 to 8.00 |
| COc1c(-c2ccc3ncsc3c2)cc(-n2ccc(=O)[nH]c2=O)cc1C(C)(C)C [IB-L0-2.33, 1-(3-(benzo[d]thiazol-6-yl)-5-tert-butyl-4-methoxyphenyl)pyrimidine-2,4(1H,3H)-dione] | 6.00 to 7.00 | 6.00 to 7.00 |
| COc1c(-c2ccc3nc(NS(C)(=O)=O)ccc3c2)cc(-n2ccc(=O)[nH]c2=O)cc1C(C)(C)C [IB-L0-2.5, N-(6-(3-tert-butyl-5-(2,4-dioxo-3,4-dihydropyrimidin-1(2H)-yl)-2-methoxyphenyl)quinolin-2-yl)methanesulfonamide] | 7.00 to 8.00 | > 8.00 |
| COc1c(/C=C/c2ccc(NS(C)(=O)=O)cc2CO)cc(-n2ccc(=O)[nH]c2=O)cc1C(C)(C)C [IB-L1-1.10, (E)-N-(4-(3-tert-butyl-5-(2,4-dioxo-3,4-dihydropyrimidin-1(2H)-yl)-2-methoxystyryl)-3-(hydroxymethyl)phenyl)methanesulfonamide] | > 8.00 | > 8.00 |
| COc1c(-c2ccc3cc(NS(C)(=O)=O)ccc3c2)cc(-n2ccc(=O)[nH]c2=O)cc1-c1ccco1 [IB-L0-2.59, N-(6-(5-(2,4-dioxo-3,4-dihydropyrimidin-1(2H)-yl)-3-(furan-2-yl)-2-methoxyphenyl)naphthalen-2-yl)methanesulfonamide] | 6.00 to 7.00 | 7.00 to 8.00 |
| COc1c(-c2ccc3nc(Cl)sc3c2)cc(-n2ccc(=O)[nH]c2=O)cc1C(C)(C)C [IB-L0-2.38, 1-(3-tert-butyl-5-(2-chlorobenzo[d]thiazol-6-yl)-4-methoxyphenyl)pyrimidine-2,4(1H,3H)-dione] | < 6.00 | < 6.00 |
| COc1c(/C=C/c2ccc(NS(C)(=O)=O)cc2C(=O)N2CCOCC2)cc(-n2ccc(=O)[nH]c2=O)cc1C(C)(C)C [IB-L1-1.23, (E)-N-(4-(3-tert-butyl-5-(2,4-dioxo-3,4-dihydropyrimidin-1(2H)-yl)-2-methoxystyryl)-3-(morpholine-4-carbonyl)phenyl)methanesulfonamide] | 6.00 to 7.00 | > 8.00 |
| COc1c(-c2ccc3cc(NS(C)(=O)=O)ccc3c2)cc(-n2ccc(=O)[nH]c2=O)cc1C(C)(C)C [IB-L0-2.3, N-(6-(3-tert-butyl-5-(2,4-dioxo-3,4-dihydropyrimidin-1(2H)-yl)-2-methoxyphenyl)naphthalen-2-yl)methanesulfonamide] | > 8.00 | > 8.00 |
| COc1c(-c2ccc3cc(NS(C)(=O)=O)ccc3c2)cc(-n2ccc(=O)[nH]c2=O)cc1C(F)(F)F [IB-L0-2.56, N-(6-(5-(2,4-dioxo-3,4-dihydropyrimidin-1(2H)-yl)-2-methoxy-3-(trifluoromethyl)phenyl)naphthalen-2-yl)methanesulfonamide] | 6.00 to 7.00 | > 8.00 |
| COc1c(-c2nc3cc([N+](=O)[O-])ccc3o2)cc(N2CCC(=O)NC2=O)cc1C(C)(C)C [IA-L0-2.7, 1-(3-tert-butyl-4-methoxy-5-(5-nitrobenzo[d]oxazol-2-yl)phenyl) dihydropyrimidine-2,4(1H,3H)-dione] | < 6.00 | 6.00 to 7.00 |
| COc1c(-c2ccc3nc(NS(C)(=O)=O)sc3c2)cc(-n2ccc(=O)[nH]c2=O)cc1C(C)(C)C [IB-L0-2.28, N-(6-(3-tert-butyl-5-(2,4-dioxo-3,4-dihydropyrimidin-1(2H)-yl)-2-methoxyphenyl)benzo[d]thiazol-2-yl)methanesulfonamide] | < 6.00 | 6.00 to 7.00 |
| COc1c(Br)cc(-n2ccc(=O)[nH]c2=O)cc1-c1ccc2cc(NS(C)(=O)=O)ccc2c1 [IB-L0-2.69, N-(6-(3-bromo-5-(2,4-dioxo-3,4-dihydropyrimidin-1(2H)-yl)-2-methoxyphenyl)naphthalen-2-yl)methanesulfonamide] | 6.00 to 7.00 | 7.00 to 8.00 |
| COc1c(/C=C(\C)c2ccc([N+](=O)[O-])cc2)cc(N2CCC(=O)NC2=O)cc1C(C)(C)C [IA-L1-1.24, 1-{3-tert-butyl-4-methoxy-5-[(E)-2-(4-nitro-phenyl)-propenyl]-phenyl}-dihydro-pyrimidine-2,4-dione] | < 6.00 | < 6.00 |
| COc1c(/C=C/c2ccc(NS(C)(=O)=O)cc2-c2ncco2)cc(-n2ccc(=O)[nH]c2=O)cc1C(C)(C)C [IB-L1-1.26, (E)-N-(4-(3-tert-butyl-5-(2,4-dioxo-3,4-dihydropyrimidin-1(2H)-yl)-2-methoxystyryl)-3-(oxazol-2-yl)phenyl)methanesulfonamide] | 7.00 to 8.00 | > 8.00 |
| COc1c(/C=C/c2ccc(NS(C)(=O)=O)cc2NC(=O)OC(C)(C)C)cc(-n2ccc(=O)[nH]c2=O)cc1C(C)(C)C [IB-L1-1.32, (E)-tert-butyl 2-(3-tert-butyl-5-(2,4-dioxo-3,4-dihydropyrimidin-1(2H)-yl)-2-methoxystyryl)-5-(methylsulfonamido)phenylcarbamate] | 6.00 to 7.00 | 7.00 to 8.00 |
| COc1c(/C=C/c2ccc(NS(C)(=O)=O)cc2CNCCC(C)C)cc(-n2ccc(=O)[nH]c2=O)cc1C(C)(C)C [IB-L1-1.31, (E)-N-(4-(3-tert-butyl-5-(2,4-dioxo-3,4-dihydropyrimidin-1(2H)-yl)-2-methoxystyryl)-3-((isopentylamino)methyl)phenyl)methanesulfonamide] | < 6.00 | < 6.00 |
| CCC(C)(C)c1cc(-n2ccc(=O)[nH]c2=O)cc(-c2ccc3cc(NS(C)(=O)=O)ccc3c2)c1OC [IB-L0-2.52, N-(6-(5-(2,4-dioxo-3,4-dihydropyrimidin-1(2H)-yl)-2-methoxy-3-tert-pentylphenyl)naphthalen-2-yl)methanesulfonamide] | 7.00 to 8.00 | > 8.00 |
| COc1c(NS(C)(=O)=O)cc(-n2ccc(=O)[nH]c2=O)cc1-c1ccc2cc(NS(C)(=O)=O)ccc2c1 [IB-L0-2.75, N-(5-(2,4-dioxo-3,4-dihydropyrimidin-1(2H)-yl)-2-methoxy-3-(6-(methylsulfonamido)naphthalen-2-yl)phenyl)methanesulfonamide] | < 6.00 | < 6.00 |
| COc1c(/C=C/c2ccc(NS(C)(=O)=O)cc2)cc(-n2cc(F)c(=O)[nH]c2=O)cc1C(C)(C)C [IB-L1-1.2, (E)-N-(4-(3-tert-butyl-5-(5-fluoro-2,4-dioxo-3,4-dihydro-pyrimidin-1(2H)-yl)-2-methoxystyryl)phenyl)methanesulfonamide] | – | 7.00 to 8.00 |
| COc1c(-c2ccc3c(c2)CC/C3=N\NS(C)(=O)=O)cc(-n2ccc(=O)[nH]c2=O)cc1C(C)(C)C [IB-L0-2.4, (E)-N′-(5-(3-tert-butyl-5-(2,4-dioxo-3,4-dihydropyrimidin-1(2H)-yl)-2-methoxyphenyl)-2,3-dihydro-1H-inden-1-ylidene)methanesulfonohydrazide] | – | > 8.00 |
| CC(C)(C)c1cc(-c2ccc3cc(NS(C)(=O)=O)ccc3c2)cc(-n2ccc(=O)[nH]c2=O)c1 [IB-L0-2.8, N-(6-(3-tert-butyl-5-(2,4-dioxo-3,4-dihydropyrimidin-1(2H)-yl)phenyl)naphthalen-2-yl)methanesulfonamide] | – | 7.00 to 8.00 |
